Read-outs that look alike come from different tables or passages of the source. Marks after values point to notes of the source that are not given here.
Legend:
[1] = 1.5 T, 37° C., Invest Radiol. 2005, cited from earlier work; for r1 plasma: bovine plasma instead of human plasma
[2] = 37° C., from Robic et al. Invest Radiol. 2019, cited from earlier work
[3] = system: freshly isolated rat hepatocytes; experiment: Uptake into freshly isolated rat hepatocytes; assay type: cell-based; details: for Inhibition Rifampicine: uptake with OATP1B1/1B3 inhibitor Rifampicine 1:1, each 100 uM
Procedure: Freshly isolated rat hepatocytes were received as described before (Papeleu P. et al. (2006) Isolation of Rat Hepatocytes. In: Phillips I. R., Shephard E. A. (eds) Cytochrome P450 Protocols. Methods in Molecular Biology, vol 320. Humana Press, Totowa, NJ. https://doi.org/10.1385/1-59259-998-2:229). The rat hepatocytes were incubated (2.5·10^5 cells/well) for 2.5 to 4 h in collagen coated 24-well plates (Fa. Beckton Dickinson Biocoat, cell environments, Collagen I Cellware) in Williams E-medium (Fa. Sigma W1878) in an incubator (37° C., 5% CO2 and […]). After incubation the adherent hepatocytes were washed once with 37° C. Hepes carbonate transport buffer (500 μL/well). The test items and RC3 were prepared from stock solutions (180 to 500 mM concentration) in Hepes carbonate transport buffer at pH 7.4 to reach a final concentration of 100 μmol Gd/L. The specific uptake of the test item or RC3 into rat hepatocytes via OATP1B1 and OATP1B3 was challenged using a known OATP1B1/1B3 inhibitor (Rifampicine, Fa. Sigma R3501, test item and inhibitor 1:1 each 100 µM final concentration). The prepared rat hepatocyte plates were incubated with test solutions (500 μL/well) at 37° C. for 10 min using a thermoshaker (Fa. Grant Bio, PHMP). Triplicates were performed for each test item. After incubating the cells were washed once with cold PBS buffer (Fa. Gibco, Dulbeccos PBS (+)). After washing the intact hepatocytes were lysed by addition of 500 μL cold 0.01% Triton-X 100 in Millipore water for 1 h. The strongly hypo-osmolar water led to cell membrane rupture and the release of the intracellular Gd-compound. After 1 h 500 μL of 10 nM Terbium ICP-MS standard was added in 2% nitric acid and 0.01% Triton 100 before the Gadolinium concentrations in the lysate were measured using ICP-MS (Agilent 8900, singleQuad, integr. Time 0.3 s, no gas, 5 replicates, Gd m/z 157, Tb m/z 159). As a reference standard RC3 is used in the same well plate. The hepatocyte uptake of the test compound is calculated relative to RC3 (resulting in the unit % of RC3).

[4] = Relaxivity measurements at 1.41 T in water and human plasma; assay type: physicochemical; details: 37° C., normalized to Gd
Procedure: Relaxivity measurements at 1.41 T were performed using a MiniSpec mq60 spectrometer (Bruker Analytik, Karlsruhe, Germany) operating at a resonance frequency of 60 MHz and a temperature of 37° C. The T1 relaxation times were determined using the standard inversion recovery (IR) method with a fixed relaxation delay of at least 5×T1. The variable inversion time (TI) was calculated automatically by the standard software of the MiniSpec mq60 (8 steps). The T2 measurements were performed by using a Carr-Purcell-Meiboom-Gill (CPMG) pulse sequence, applying a relaxation delay of at least 5×T1.
Each relaxivity measurement was performed using three different Gd concentrations (3 concentrations between 0.05 and 2 mM). The T1 and T2 relaxation times of the example compounds were measured in water and human plasma. Human plasma preparation: For each experiment fresh blood was taken from a volunteer using 10 mL citrate-tubes (Sarstedt S-Monovette 02.1067.001, 10 mL, Citrate). The 10 mL citrate-tubes were carefully inverted 10 times to mix blood and anticoagulant and centrifuged for 15 min at 1811 g at RT (Eppendorf, Centrifuge 5810R).
The relaxivities ri (where i=1, 2) were calculated based on the measured relaxation rates Ri in water and plasma:
where Ri(0) represent the relaxation rate of the respective solvent and CGd the concentration of the compound normalized to the Gadolinium. The Gadolinium concentrations of the investigated solutions were verified by Inductively Coupled Plasma Mass Spectrometry (ICP-MS Agilent 7500a, Waldbronn, Germany).

Structure (SMILES)	r1 plasma [1]	r1 water [1]	Inhibition Rifampicine [3]	r1 human plasma [4]	r1 water [4]	also measured
O=C([O-])CN1CCN(CC(=O)[O-])CCN([C@H](CO)[C@H](O)CO)CCN(CC(=O)[O-])CC1.[Gd+3] (racemic) [RC 1, gadobutrol]	3.6^# L·mmol^−1·s^−1	2.9^# L·mmol^−1·s^−1	–	–	–	–
O=C(CCC(C(=O)[O-])N1CCN(C(CCC(=O)NCC(O)CO)C(=O)[O-])Cc2cccc(n2)CN(C(CCC(=O)NCC(O)CO)C(=O)[O-])CC1)NCC(O)CO.[Gd+3] (stereo not shown) [Compound 11]	–	–	–	–	–	r1 human plasma ([2]; human plasma): 12.8** L·mmol^−1·s^−1; r1 water ([2]; water): 12.2** L·mmol^−1·s^−1
CCOCCOc1ccc(CC2CN(CC(=O)[O-])CCN(CC(=O)[O-])CCN(CC(=O)[O-])CCN2CC(=O)O)cc1.[Gd+3] (stereo not shown) [Compound 22]	–	–	94 % inhibition	6.6 L/mmol/s	4.8 L/mmol/s	–
CCOc1ccc(CC2CN(CC(=O)[O-])CCN(CC(=O)[O-])CCN(CC(=O)O)CCN2CC(=O)[O-])cc1.[Gd+3] (stereo not shown) [Compound 23]	–	–	96 % inhibition	6.2 L/mmol/s	4.5 L/mmol/s	–
CCCCOc1ccc(CC2CN(CC(=O)[O-])CCN(CC(=O)[O-])CCN(CC(=O)O)CCN2CC(=O)[O-])cc1.[Gd+3] (stereo not shown) [Compound 24]	–	–	86 % inhibition	9.8 L/mmol/s	5.3 L/mmol/s	–
CNC[C@H](O)[C@@H](O)[C@H](O)[C@H](O)CO.O=C([O-])CN1CCN(CC(=O)[O-])CCN(CC(=O)O)CCN(CC(=O)[O-])CC1.[Gd+3] [RC 2, gadoterate meglumine]	5.2^# L·mmol^−1·s^−1	3.3^# L·mmol^−1·s^−1	–	–	–	–
CCOc1ccc(CC(CN(CCN(CC(=O)[O-])CC(=O)[O-])CC(=O)[O-])N(CC(=O)[O-])CC(=O)[O-])cc1.[Gd+3].[Na+].[Na+] (stereo not shown) [RC 3, gadoxetate disodium]	6.9^# L·mmol^−1·s^−1	4.7^# L·mmol^−1·s^−1	97 % inhibition	–	–	–
O=C([O-])CN(CCN(CC(=O)[O-])CC(=O)[O-])CCN(CC(=O)[O-])C(COCc1ccccc1)C(=O)[O-].[Gd+3].[H+].[H+] (stereo not shown) [RC 4, gadobenic acid, reference compound]	6.3^# L·mmol^−1·s^−1	4.0^# L·mmol^−1·s^−1	79 % inhibition	–	–	Uptake rat hepatocytes ([3]; 100 μmol Gd/L, 10 min, 37° C., Gd in lysate by ICP-MS, relative to RC3): 9 % of RC3

Reference: patent US20260077069A1, “COMBINATIONS OF CONTRAST AGENTS” (BAYER AKTIENGESELLSCHAFT, priority 2022, published 2026)
